Experimental data taken from article PMC5183552 (Neuropharmacology, 2016).

Assays:
mouse A1AR = biological target: T1, mouse A1AR (Mus musculus, UniProt Q60612); assay: Radioligand binding, recombinant mouse A1AR in HEK-293 membranes; conditions: read-out: Ki, mouse A1AR; current results, ±SEM
T1 sequence (Q60612 1-326): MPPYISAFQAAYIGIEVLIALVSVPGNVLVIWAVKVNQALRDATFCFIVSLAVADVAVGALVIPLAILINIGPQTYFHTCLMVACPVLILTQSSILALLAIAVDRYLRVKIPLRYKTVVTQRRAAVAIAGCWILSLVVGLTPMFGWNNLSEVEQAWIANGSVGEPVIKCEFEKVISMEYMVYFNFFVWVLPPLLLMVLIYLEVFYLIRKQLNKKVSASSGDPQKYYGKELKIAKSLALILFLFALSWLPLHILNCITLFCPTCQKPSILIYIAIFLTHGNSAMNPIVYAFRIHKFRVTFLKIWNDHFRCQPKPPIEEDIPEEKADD

mouse A3AR = biological target: T2, mouse A3AR (Mus musculus, UniProt Q61618); assay: Radioligand binding, recombinant mouse A3AR in HEK-293 membranes; conditions: read-out: Ki, mouse A3AR; current results, ±SEM
T2 sequence (Q61618 1-319): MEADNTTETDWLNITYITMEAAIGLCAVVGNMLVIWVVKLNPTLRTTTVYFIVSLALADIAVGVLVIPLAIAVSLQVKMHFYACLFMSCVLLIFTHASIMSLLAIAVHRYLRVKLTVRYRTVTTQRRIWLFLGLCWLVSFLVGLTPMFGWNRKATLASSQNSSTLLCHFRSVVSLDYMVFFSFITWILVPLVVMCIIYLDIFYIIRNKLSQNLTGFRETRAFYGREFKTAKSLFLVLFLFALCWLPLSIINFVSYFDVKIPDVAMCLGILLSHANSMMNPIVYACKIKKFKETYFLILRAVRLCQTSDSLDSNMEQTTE

mice [1] = assay: Body temperature; type: in vivo, mouse
mice [2] = assay: Indirect calorimetry; type: in vivo, mouse; conditions: Adora3−/− mice, 3 mg/kg, i.p.
mice [3] = assay: Temperature gradient; type: in vivo, mouse; conditions: Adora3−/− mice, 3 mg/kg, i.p.
Human A2AAR = Human A2AAR (Homo sapiens, UniProt P29274); conditions: read-out: Ki, human A2AAR; ref Franchetti et al, 2009; cited from earlier work
Human A2AAR, sequence (P29274 whole entry): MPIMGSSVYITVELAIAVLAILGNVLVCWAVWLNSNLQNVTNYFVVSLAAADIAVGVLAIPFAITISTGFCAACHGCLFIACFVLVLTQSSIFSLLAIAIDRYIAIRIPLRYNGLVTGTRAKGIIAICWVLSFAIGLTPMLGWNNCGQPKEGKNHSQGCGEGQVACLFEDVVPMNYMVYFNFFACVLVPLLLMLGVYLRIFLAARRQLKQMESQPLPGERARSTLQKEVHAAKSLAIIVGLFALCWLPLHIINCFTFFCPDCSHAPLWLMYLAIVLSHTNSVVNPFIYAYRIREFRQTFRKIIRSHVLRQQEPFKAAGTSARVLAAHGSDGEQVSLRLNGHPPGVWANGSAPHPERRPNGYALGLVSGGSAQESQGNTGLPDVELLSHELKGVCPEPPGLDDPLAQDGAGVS

Human A3AR = biological target: T3, Human A3AR (Homo sapiens, UniProt P0DMS8); conditions: read-out: Ki, human A3AR; ref Franchetti et al, 2009; cited from earlier work
T3 sequence (P0DMS8 1-318): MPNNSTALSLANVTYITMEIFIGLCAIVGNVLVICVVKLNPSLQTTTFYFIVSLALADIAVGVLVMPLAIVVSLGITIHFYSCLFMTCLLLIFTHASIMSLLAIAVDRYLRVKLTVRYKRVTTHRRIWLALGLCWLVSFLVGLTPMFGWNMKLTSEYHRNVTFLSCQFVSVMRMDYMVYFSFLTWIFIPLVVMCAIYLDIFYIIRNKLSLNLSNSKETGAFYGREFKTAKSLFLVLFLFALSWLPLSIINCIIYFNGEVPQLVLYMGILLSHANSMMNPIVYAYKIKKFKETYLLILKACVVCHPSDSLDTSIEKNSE

mouse = conditions: 0.5 mg/kg, ref Luongo et al, 2012; cited from earlier work
[4] = C57BL/6J mice, 0.3–10 mg/kg, i.p.

Structure (SMILES): O[C@@H]1[C@H](O)[C@@H](CCl)O[C@H]1n1cnc2c(NC3CC4CCC3C4)ncnc21 (mixture of isomers) [Cl-ENBA, (±)-5'-chloro-5'-deoxy-N^6-endo-norbornyladenosine]
- Ki (mouse A1AR): 0.2 ± 0.01 nM
- Ki (mouse A3AR): 2410 ± 325 nM
- Effect of i.c.v. dosing on Tb in Adora1−/− mice (mice [1]; 15 µg/mouse, i.c.v.): greatly diminished
- Hypothermia in mast cell-deficient Kit W-sh/W-sh mice (mice [1]; 1 mg/kg, i.p.): largely intact
- Hypothermia in Adora1−/− mice vs wild type (mice [1]; 3 mg/kg, i.p.): largely abolished
- Hypothermia in Adora1−/−;Adora3−/− mice (mice [1]; 3 mg/kg, i.p.): completely lost
- Hypothermia in Adora3−/− mice vs wild type (mice [1]; 3 mg/kg, i.p.): remained present
- Hypothermia in mast cell-deficient Kit W-sh/W-sh mice (mice [1]; 3 mg/kg, i.p.): significantly attenuated
- Hypothermia after pretreatment with raclopride (mice [1]; 3 mg/kg, i.p., raclopride 1 mg/kg, data not shown): not affected
- Effect on Tb (mice [1]; [4]): dose-dependent hypothermia
- Effect on physical activity (mice [1]; [4]): hypoactivity
- Time of TEE nadir (mice [2]): ~ 50 min
- Time of Tb nadir (mice [2]): ~ 100 min
- Effect on metabolic rate (total energy expenditure) (mice [2]; before the Tb nadir): reduced metabolic rate
- Effect on physical activity (mice [2]; before the Tb nadir): reduced
- Environmental temperature preference in thermal gradient (mice [3]): modest preference for a cooler place
- Ki (Human A2AAR): 1340 nM
- Ki (Human A3AR): 1290 nM
- Anti-nociceptive effect (mouse): anti-nociceptive
